From patent publication US20230123104A1, “CRYSTAL OF TRICYCLIC COMPOUND ACTING ON CRBN PROTEIN AND PREPARATION METHOD THEREFOR” (CHIA TAI TIANQING PHARMACEUTICAL GROUP CO., LTD., priority 2020, published 2023)

Tests used:
[1] = system: multiple myeloma cell line MM.1S; experiment: Antiproliferative effect, CellTiter-Glo cell viability assay, MM.1S; format: cell-based, human
Procedure: (§1) In this experiment, the inhibition of cell proliferation in multiple myeloma cell lines MM.1S and NCI-H929 by the compound of formula (I) was detected.
(§2) The tumor cell lines were cultured in an incubator at 37° C. with 5% CO2 under the culture conditions described above. Periodical passaging was performed, and cells growing at log phase were used for plating.
(§3) (1) Cells were stained with trypan blue and viable cells were counted.
(§4) (2) The cell concentration was adjusted to an appropriate level.
(§5) (3) 90 μL of cell suspension was added to each well in the culture plate and cell-free medium was added to the blank control wells according to the table above.
(§6) (4) The culture plate was incubated overnight in an incubator at 37° C. with 5% CO2 and 100% relative humidity. […]
(§7) The following procedure was performed according to the instructions of Promega CellTiter-Glo luminescence cell viability assay kit (Promega-G7573). […]
(§8) (8) The culture plate was placed at room temperature for 10 min to stabilize the luminescence signals.
(§9) (9) The luminescence signals were detected on 2104 EnVision plate reader.
(§10) Inhibition rates of the compound of formula (I) at different concentrations were calculated in Excel, followed by plotting the inhibition curves and calculating relevant parameters including minimum inhibition rate, maximum inhibition rate and IC50 using GraphPad Prism software.

[2] = Pharmacokinetic evaluation in mice; format: in vivo, C57BL male mice
Source text: (§11) The test animals in the study were C57BL male mice, and the LC/MS/MS method was used to quantitatively determine the drug concentration in the plasma of the mice at different time points after intravenous injection or oral administration of the test compound, thus evaluating the pharmacokinetic characteristics of the compound of formula (I) in the mice.
C57Balb/C (C57) mice (male, 20-30 g, 7-10 weeks old, Beijing Vital River or Shanghai SLAC).
Clear or suspended solution of the compound of formula (I) was injected into C57 mice (fasted overnight) via the tail vein or administered intragastrically to C57 mice (fasted overnight). For intravenous injection, […] of blood was each collected by jugular vein puncture at 0 h (before injection) and 0.0833 h, 0.25 h, 0.5 h, 1 h, 2 h, 4 h, 6 h, 8 h and 24 h (after injection), and then placed in an anticoagulation tube added with EDTA-K2 (Jiangsu KANGJIAN Medical Apparatus Co., Ltd.), and the mixture was thoroughly vortex-mixed at 4° C. and centrifuged at 13000 rpm for 10 min; for intragastric administration, blood was collected by jugular vein puncture at 0 h (before administration) and 0.5 h, 1 h, 2 h, 4 h, 6 h, 8 h and 24 h (after administration), and then placed in an anticoagulation tube added with EDTA-K2 (Jiangsu KANGJIAN Medical Apparatus Co., Ltd.), and the mixture was thoroughly vortex-mixed and centrifuged at 13000 rpm for 10 min. The plasma concentration was measured by LC-MS/MS, and the relevant pharmacokinetic parameters were calculated using WinNonlin™ Version 6.3 (Pharsight, Mountain View, Calif.), a pharmacokinetic software, with a non-compartmental model linear-log trapezoidal method.

[3] = Pharmacokinetic evaluation in rats; format: in vivo, SD male rats
Source text: as §11, with “SD” for “C57BL”, “rats,” for “mice,”, “rats” for “mice”, “compound of formula (I),” for “test compound,”, “rats.” for “mice.”
Sprague Dawley (SD) rats (male, 200-300 g, 7-10 weeks old, Beijing Vital River or Shanghai SLAC).
Clear solution of the compound of formula (I) was injected into SD rats (fasted overnight) via the tail vein or administered intragastrically to SD rats (fasted overnight). For intravenous injection, 200 μL of blood was each collected by jugular vein puncture at 0 h (before injection) and 0.0833 h, 0.25 h, 0.5 h, 1 h, 2 h, 4 h, 6 h, 8 h and 24 h (after injection), and then placed in an anticoagulation tube added with EDTA-K2 (Jiangsu KANGJIAN Medical Apparatus Co., Ltd.), and the mixture was thoroughly vortex-mixed at 4° C. and centrifuged at 13000 rpm for 10 min; for intragastric administration, blood was collected by jugular vein puncture at 0 h (before administration) and 0.5 h, 1 h, 2 h, 4 h, 6 h, 8 h and 24 h (after administration), and then placed in an anticoagulation tube added with EDTA-K2 (Jiangsu KANGJIAN Medical Apparatus Co., Ltd), and the mixture was thoroughly vortex-mixed and centrifuged at 13000 rpm for 10 min. The plasma concentration was measured by LC-MS/MS, and the relevant pharmacokinetic parameters were calculated using WinNonlin™ Version 6.3 (Pharsight, Mountain View, Calif.), a pharmacokinetic software, with a non-compartmental model linear-log trapezoidal method.

[4] = system: multiple myeloma cell line NCI-H929; experiment: Antiproliferative effect, CellTiter-Glo cell viability assay, NCI-H929; format: cell-based
Procedure: as §1, §2, §3, §4, §5, §6, §7, §8, §9, §10

[5] = system: human myeloma MM.1S cells; experiment: In vivo pharmacodynamic study in subcutaneous xenograft tumor CB-17 SCID model; set-up: species or system CB-17 SCID mice; conditions: 5 mg/kg oral, twice daily
Procedure: Cell culturing: human multiple myeloma cells MM.1S (ATCC® CRL-2974™) were cultured in vitro, in a semi-suspension manner, with an ATCC-formulated RPMI-1640 medium containing 10% fetal calf serum, 100 U/mL penicillin and 100 μg/mL streptomycin in an incubator at 37° C. with 5% CO2. Passages were performed twice a week. At a required number, the cells were taken, counted and inoculated.
Animals: CB-17 SCID mice, female, 6-8 weeks old, weighing 18-20 g.
0.2 mL (5×10^6 cells) of MM.1S cells (along with matrigel in a volume ratio of 1:1) was subcutaneously inoculated on the right back of each mouse, and the mice were divided into groups for administration after the mean tumor volume was approximately 130 mm^3. Seven days constitute an administration cycle, twice daily with a 12 h interval, and the compound of formula (I) was orally administered for a total of four cycles. The compound of formula (I) was administered at a dose of 5 mg/kg, tumor volume was measured twice weekly with a two-dimensional caliper, and the volume was measured in cubic millimeters and calculated according to the following formula: V=0.5a×b^2, where a and b are the long and short diameters, respectively, of the tumor. Anti-tumor efficacy was determined by dividing the mean tumor increase volume of animals treated with the compound of formula (I) by the mean tumor increase volume of untreated animals.

[6] = intravenous injection (2 mg/kg)
[7] = intragastric administration (10 mg/kg)

O=C1CCC(c2noc3ccc4[nH]ccc4c23)C(=O)N1 (centres unmarked) [Compound of formula (I)]
inhibitory effect on cell proliferation (conclusion) [1]: excellent inhibitory effect
IC50 ([1]; Homo sapiens, MM1.S, 120 h, co-incubated 5 days, CellTiter-Glo): 0.4 nM
Area under plasma concentration-time curve (0-inf) [2, 6]: 5.34 µM·h
Area under plasma concentration-time curve (0-inf) ([2]; oral administration (10 mg/kg)): 12.29 µM·h
Bioavailability F ([2]; oral administration (10 mg/kg)): 46.1%
Peak concentration ([2]; oral administration (10 mg/kg)): 10.52 µM
Time to peak ([2]; oral administration (10 mg/kg)): 0.25 h
Area under plasma concentration-time curve (0-inf) [3, 7]: 26.34 µM·h
Bioavailability F [3, 7]: 66.5%
Peak concentration [3, 7]: 12.75 µM
Time to peak [3, 7]: 0.50 h
Area under plasma concentration-time curve (0-inf) [3, 6]: 7.92 µM·h
IC50 ([4]; Homo sapiens, 120 h, NCI-H929, co-incubated 5 days, CellTiter-Glo): 0.5 nM
inhibitory effect on cell proliferation (conclusion) ([4]; NCI-H929): excellent inhibitory effect
Tumor volume (Day 0) ([5]; Day 0): 131 ± 12 mm^3
TGI (Day 24) ([5]; Day 24): 105%
Tumor volume (Day 24) ([5]; Day 24): 14 ± 5 mm^3
